Experimental data from patent US11578265B2, “AIEgens for cancer cell imaging” (THE HONG KONG UNIVERSITY OF SCIENCE AND TECHNOLOGY, priority 2016, dated 2023).
One block for each compound: values may come before it.

How the values were obtained:
[1] = UV-vis and photoluminescence properties of 2TPE-4E; format: physicochemical
Description: The photophysical properties of 2TPE-4E were investigated by UV-vis (FIG. 7A) and photoluminescence (PL) spectra. […] The high ε means 2TPE-4E could be excited by a weak laser power, which is beneficial for bio-application due to the weak photo-damage and photobleaching.
Although the film of 2TPE-4E looked bright, its quantum yield (QY) was measured to be around 6%, which can probably be ascribed to the high molar extinction coefficient. […] With the water fraction (fw) increasing, 2TPE-4E began to aggregate and gave a highest intensity at a fw of 90% due to the restriction of intramolecular rotation.

Water solubility of CSPP = format: physicochemical
Excerpt: The design and synthesis of the present subject matter was inspired by the simple design and synthesis of ASCP, which was further modified and the hydrophilicity was improved. To prevent denature of antibodies during conjugation, aqueous solution was used for the reaction. A water-soluble AIEgen having a long wavelength in absorption and emission was required. Piperazine (PZ) was introduced to the structure and served as the electron donating group and hydrophilic group; pyridium (Py) salt was kept as the strong electron withdrawing group and hydrophilic group; and α-Cyanostilbene was the core skeleton for attributing AIE characteristics. As such, a new AIEgen, CSPP, was synthesized by Knoevenagel condensation and Suzuki coupling and the targeted compound was successfully obtained. CSPP carries two positive charges, thus enjoying high water-solubility, and its donor-acceptor structure contributes to a long-wavelength absorption, as well as emission. The synthetic route to CSPP and CSPP—NHS is shown below, with the scheme of synthesis following.

NCI-H23 cells = experiment: CCK-8 cell viability with CSPP; format: cell-based; conditions: NCI-H23, CSPP up to 50 μM, 24 hours
Description: (§1) HCC827 and NCI-H23 cells were seeded for 24 hours and incubated in CSPP of different concentration for 24 hours. Data given are the mean±SD (n=4). Before CSPP was further functionalized for antibody labeling, its biocompatibility was verified by CCK-8 assay (FIG. 22).

HCC827 cells [2] = experiment: CCK-8 cell viability with CSPP; format: cell-based, human; conditions: HCC827, CSPP up to 50 μM, 24 hours
Description: as §1

HCC827 cells [3] = experiment: Cell imaging of CSPP and co-staining with MitoTracker Green; format: cell-based, human; conditions: 5 μM
Description: The cell imaging of CSPP molecule was also checked (FIG. 23). […] After 8 hours of incubation, more dyes entered and accumulated in the mitochondria of the cells due to targeting of the pyridium group.

[4] = Photophysical properties of CSPP; format: physicochemical
Description: Inset: photographs of CSPP in water/iPrOH mixtures with 0% and 99% iPrOH fractions taken under 365 nm UV irradiation; (c) PL spectrum of CSPP in water/glycerol mixtures with different glycerol fractions (fG); and (d) plot of I/I0 at 620 nm versus fG, where I0 was the PL intensity in pure water. Inset: plot of log I against log η, where η was the solution viscosity. Concentration: 10 μM; λex: 400 nm.
The photophysical properties of CSPP were studied. […] However, the emission was enhanced at 640 nm in increments of isopropanol fraction (FIGS. 20a and b), which is a signature of AIE. The free intramolecular motion of a molecularly dissolved state in aqueous solution was in favor of non-radiative decay.
Addition of isopropanol induced the formation of aggregates and restricted the intramolecular motion (RIM), activating the radiative channel. Similarly, intramolecular motion can also be restricted in a highly viscous condition.

- maximum absorption [1]: 473 nm
- water fraction (fw) giving highest emission intensity ([1]; THF/water mixtures): 90%
- emission in dilute THF solution ([1]; dilute THF): very weak emission
- molar extinction coefficient (ε) ([1]; dilute THF solution and thin film): about 7×10^4 M^−1 cm^−1
- quantum yield (QY) ([1]; film): around 6%
- solid emission wavelength ([1]; thin film): 630 nm
SMILES: CCN(CC)c1ccc(C(=C(c2ccccc2)c2ccc(C#CC#CC#CC#Cc3ccc(C(=C(c4ccc(N(CC)CC)cc4)c4ccc(N(CC)CC)cc4)c4ccccc4)cc3)cc2)c2ccc(N(CC)CC)cc2)cc1 [2TPE-4E]

- water solubility (Water solubility of CSPP): water-soluble
- λmax, abs ([4]; Aggregates in 99% isopropanol): 400 nm
- λmax, em ([4]; Aggregates in 99% isopropanol): 624 nm
- φF ([4]; Aggregates in 99% isopropanol): 5.6%
- λmax, abs ([4]; In 95% glycerol): 405 nm
- λmax, em ([4]; In 95% glycerol): 610 nm
- φF ([4]; In 95% glycerol): 13.7%
- λmax, abs ([4]; In water): 395 nm
- λmax, em ([4]; In water): 640 nm
- φF ([4]; In water): 0.9%
- emission in pure water ([4]; pure water): very weak emission
SMILES: C[n+]1ccc(-c2ccc(/C(C#N)=C/c3ccc(N4CC[N+](C)(C)CC4)cc3)cc2)cc1.[I-].[I-] [CSPP, (Z)-4-(4-(2-cyano-2-(4-(1-methylpyridin-1-ium-4-yl)phenyl)vinyl)phenyl)-1,1-dimethylpiperazin-1-ium iodide]
- cell viability (NCI-H23 cells): > 81%
- cell viability (HCC827 cells [2]): above 90%
- emission from stained cells (HCC827 cells [3]; 30 minutes): no emission
- emission from stained cells (HCC827 cells [3]; 8 hours): mitochondria lit up
- Pearson correlation coefficient with MitoTracker Green (HCC827 cells [3]; 8 hours, co-staining): 0.80
